Experimental data reported in paper PMC5537225, “Therapeutic efficacy of a respiratory syncytial virus fusion inhibitor” (Nature Communications, 2017).
Read-outs that look alike come from different tables or passages of the source.

Key:
[1] = target: prefusion-stabilized RSV F protein (DS-Cav1) (respiratory syncytial virus strain A2); assay: crystal structure
[2] = target: T1, prefusion-stabilized RSV F protein (DS-Cav1) (Human respiratory syncytial virus A, UniProt P03420, I379V/M447V/S155C/S190F/S290C/V207L); assay: biochemical; assay type: binding; conditions: ITC
T1 construct: purification tags incl; made in house; host or cells: FreeStyle 293 F cells, with kifunensine

post-fusion RSV F = assay type: binding; conditions: ITC
[3] = target: T2, prefusion L141W mutant RSV F (DS-Cav1) (Human respiratory syncytial virus A, UniProt P03420, I379V/L141W/M447V/S155C/S190F/S290C/V207L); assay type: binding; conditions: ITC; 1:1 fits could not be determined
T2 construct: purification tags incl; made in house; host or cells: FreeStyle 293 F cells, with kifunensine

[4] = target: T3, prefusion D489Y mutant RSV F (DS-Cav1) (Human respiratory syncytial virus A, UniProt P03420, D489Y/I379V/M447V/S155C/S190F/S290C/V207L); assay type: binding; conditions: ITC; 1:1 fits could not be determined
T3 construct: purification tags incl; made in house; host or cells: FreeStyle 293 F cells, with kifunensine

[5] = target: T4, full-length wild-type RSV F protein (Human respiratory syncytial virus A, UniProt P03420); assay: Membrane-bound F protein stability assay (heat-shock flow cytometry, HEK293T cells); assay type: cell-based; conditions: 55 °C for 10 min
T4 construct: The full-length wild-type RSV F protein was transiently expressed in HEK293T cells; expressed in transfected cells; host or cells: HEK293T
Method: The full-length wild-type RSV F protein was transiently expressed in HEK293T cells. Forty-eight hours post transfection, the cells were detached using an EDTA-containing buffer and the cell suspension with or without added compounds was heat-shocked for 10 min at 55 °C. The cells were stained with the CR9501 and CR9503 antibodies (1 µg ml^−1) directly labeled with AlexaFluor647 (Alexa Fluor® 647 Monoclonal Antibody Labeling Kit, Molecular Probes/Invitrogen). Propidium iodide (Molecular Probes/Invitrogen) was used as a live-dead stain. Flow Cytometry was performed on FACS Canto II instrument (BD Biosciences). The data were analyzed using FlowJo9.6.1 software. A single cell population was selected on the side and forward scatters dot-plot. Within this population, PI-negative cells were analyzed for staining with CR9501 and CR9503 antibodies. Mean fluorescence intensity was calculated and the values of the heat-shocked samples were normalized to untreated (37 °C) samples.

rgRSV224 = assay: microbe, parasite or virus in culture; assay type: cell-based, respiratory syncytial virus; conditions: for EC50: human respiratory syncytial virus, HeLa
recombinant hMPV = assay: microbe, parasite or virus in culture; assay type: cell-based; conditions: human metapneumovirus, Vero/TMPRSS2; mean of at least 3 experiments
recombinant PIV-3 strain = assay: microbe, parasite or virus in culture; assay type: cell-based, human parainfluenza virus 3; conditions: Human respirovirus 3, Vero; mean of at least 3 experiments
CVB = CVB assay in Vero Bayer cells; assay type: cell-based, Coxsackie virus B4; conditions: Enterovirus B, mean of at least 3 experiments
HIV-1 IIIB virus = assay: HIV-1 assay in MT4-LTR-Luc cells; assay type: cell-based; conditions: Human immunodeficiency virus 1, IIIB; mean of at least 3 experiments
Method: (§1) Briefly, white 384-well plates were filled in quadruplicate using a customized robot system with serial fourfold dilutions of compound in a final volume of 10 µl culture medium. Then, 15 µl of a MT4-LTR-Luc cell suspension (4 × 10^5 cells per ml) in culture medium was added to each well followed by the addition of 15 µl HIV IIIB virus (MOI = 0.0125) in culture medium using a multidrop dispenser. […] The CC50 value was calculated on the basis of the difference of luminescence between non-treated and compound-treated cells.

[6] = Cytotoxicity in non-infected MT4-LTR-Luc cells; assay type: cell-based; conditions: human, mean of at least 3 experiments, read-out: CC50 (HIV-1 row)
Method: as §1

[7] = tested on: HCV genotype 1b subgenomic replicon; assay: microbe, parasite or virus in culture; assay type: cell-based; conditions: Hepatitis C virus; mean of at least 3 experiments
DENV-2 = assay: microbe, parasite or virus in culture; assay type: cell-based; conditions: Dengue virus, read-out: EC50 DENV
CMV-AD169-eGFP virus = assay: microbe, parasite or virus in culture; assay type: cell-based, cytomegalovirus; conditions: Human betaherpesvirus 5, AD169, HEL 299; mean of at least 3 experiments
[8] = tested on: rgRSV224 D489Y mutant strain; assay type: cell-based, respiratory syncytial virus
L141W mutant RSV = assay type: cell-based, respiratory syncytial virus; conditions: A549 cells, time-lapse imaging 48 h
D489Y mutant RSV = assay type: cell-based, respiratory syncytial virus; conditions: A549 cells, time-lapse imaging 48 h
Long strain RSV = assay: In vivo efficacy in RSV-infected cotton rats; parameters: species or system Sigmodon hispidus cotton rats
RSV A2 = assay: Viral titer in RSV-inoculated BALB/c mice; assay type: in vivo; conditions: single 40 mg kg−1 dose 1 h before infection
[9] = tested on: RSV-induced pro-inflammatory cytokines and chemokines; assay: Cytokine and chemokine analysis in RSV-infected BALB/c mice; assay type: in vivo; conditions: single 40 mg kg−1 p.o. 1 h before infection, Day 6, mean ± s.e.m., n=6
[10] = tested on: RSV-induced cellular influx in the lungs; assay: Measurement of cellular influx into the lungs of RSV-infected BALB/c mice; assay type: in vivo
RSV M37 strain = assay: In vivo efficacy in RSV-infected neonatal lambs
[11] = tested on: soluble prefusion ectodomain of F protein; conditions: DSF
HeLa RH cells = conditions: human, 3 days
Method: (§2) After 3 days of incubation at 33 °C, cytopathic effect (CPE) was quantified by measuring the ATP content in compound-treated and non-treated cells with ATPlite kit according to the manufacturer’s instructions. Cytotoxicity of the compound was determined in a parallel set of plates mock-infected with cell culture medium. After 3 days of incubation at 33 °C, ATP content in compound-treated and non-treated cells was quantified with ATPlite kit.

[12] = dog
in vivo [13] = conditions: 10 mg/kg
in vivo [14] = conditions: male, Beagle, dog
in vitro [15] = conditions: African green monkey
in vitro [16] = conditions: African green monkey; remark: listed apart in the source
Method: Briefly, black 384-well clear-bottom microtiter plates were filled in quadruplicate using a customized robot system with serial fourfold dilutions of compound in a final volume of 200 nl DMSO. Then, 20 µl of a Vero Bayer cell suspension (3.75 × 10^4 cells/ml) in culture medium was added to each well followed by the addition of 20 µl PIV-3-eGFP virus (MOI = 1) in culture medium, or 20 µl culture medium for cell controls, using a multidrop dispenser.

in vitro [17] = conditions: African green monkey; remark: listed apart in the source
in vitro [18] = conditions: human
in vitro [19] = conditions: human; remark: listed apart in the source
Method: Briefly, 96-well plates were filled with 100 µl/well of HepG2.117 cells (2 × 10^4 cells per well) and incubated overnight at 37 °C in a humidified atmosphere containing 5% CO2.

recombinant MV = assay: MV assay in Vero/hSLAM cells; conditions: Measles morbillivirus, Vero, read-out: EC50 MV
HRV 16 = assay: HRV assay (CPE, HeLa RH cells), HRV 16; conditions: Rhinovirus A, read-out: EC50 HRV 16
Method: as §2

HRV 1b = assay: HRV assay (CPE, HeLa RH cells), HRV 1b; conditions: Rhinovirus A, read-out: EC50 HRV 1b
Method: as §2

RSV A and B strains = conditions: HeLa cells
Method: Briefly, black 384-well clear-bottom microtiter plates were filled in quadruplicate using a customized robot system with serial fourfold dilutions of compound in a final volume of 200 nl dimethylsulfoxide (DMSO). Then, 20 µl of a HeLa cell suspension (5 × 10^4 cells ml^−1) in culture medium was added to each well followed by the addition of 20 µl RSV (multiplicity of infection, MOI = 0.02) in culture medium, or 20 µl culture medium for cell controls, using a multidrop dispenser. […] In parallel, compounds were incubated for 3 days in a set of white 384-well microtiter plates and the cytotoxicity of compounds in HeLa cells (CC50) was determined by measuring the adenosine triphosphate (ATP) content of the cells using the ATPlite kit (PerkinElmer, Waltham, MA) according to the manufacturer’s instructions. The activity of the compound against non-recombinant RSV A and B strains was determined similarly by plaque assay[70].

[20] = tested on: rgRSV224 in human bronchoepithelial cells (HBECs); assay: Antiviral potency in air-liquid cultures of HBECs infected with rgRSV224
[21] = tested on: rgRSV224 L141W mutant strain; assay type: cell-based, respiratory syncytial virus; conditions: mutant selected with JNJ-53718678
[22] = mock-treated rgRSV224 during in vitro selection procedure, read-out: EC50 wild-type strain (untreated control)
[23] = RSV-infected, single 40 mg kg−1 p.o., BAL, mean ± s.e.m., n=6
[24] = 25 mg kg−1 daily starting 1 day after infection
[25] = HBECs, 100 nM, 6 or 24 h after onset of infection

T1 sequence (P03420 137-513, looked up, stated change not applied): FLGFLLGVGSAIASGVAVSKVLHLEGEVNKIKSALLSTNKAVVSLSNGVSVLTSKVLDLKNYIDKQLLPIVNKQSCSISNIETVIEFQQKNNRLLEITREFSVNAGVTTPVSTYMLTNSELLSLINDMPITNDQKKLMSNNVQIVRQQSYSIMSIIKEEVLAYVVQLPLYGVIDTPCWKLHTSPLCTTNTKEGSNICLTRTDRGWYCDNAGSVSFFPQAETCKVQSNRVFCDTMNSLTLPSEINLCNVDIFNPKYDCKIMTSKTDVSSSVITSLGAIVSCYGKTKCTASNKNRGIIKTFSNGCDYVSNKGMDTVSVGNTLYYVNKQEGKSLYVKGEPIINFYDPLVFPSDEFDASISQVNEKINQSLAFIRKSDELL
T1 sequence (P03420 26-109, stated change not applied): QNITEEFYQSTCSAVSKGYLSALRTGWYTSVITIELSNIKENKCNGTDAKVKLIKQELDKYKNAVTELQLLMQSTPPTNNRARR
T2 sequence (P03420 137-513, looked up, stated change not applied): as the sequence (P03420 137-513, looked up, stated change not applied) above
T2 sequence (P03420 26-109, stated change not applied): as the sequence (P03420 26-109, stated change not applied) above
T3 sequence (P03420 26-109, stated change not applied): as above
T3 sequence (P03420 137-513, looked up, stated change not applied): as the sequence (P03420 137-513, looked up, stated change not applied) above
T4 sequence (P03420 26-109): as the sequence (P03420 26-109, stated change not applied) above
T4 sequence (P03420 137-574): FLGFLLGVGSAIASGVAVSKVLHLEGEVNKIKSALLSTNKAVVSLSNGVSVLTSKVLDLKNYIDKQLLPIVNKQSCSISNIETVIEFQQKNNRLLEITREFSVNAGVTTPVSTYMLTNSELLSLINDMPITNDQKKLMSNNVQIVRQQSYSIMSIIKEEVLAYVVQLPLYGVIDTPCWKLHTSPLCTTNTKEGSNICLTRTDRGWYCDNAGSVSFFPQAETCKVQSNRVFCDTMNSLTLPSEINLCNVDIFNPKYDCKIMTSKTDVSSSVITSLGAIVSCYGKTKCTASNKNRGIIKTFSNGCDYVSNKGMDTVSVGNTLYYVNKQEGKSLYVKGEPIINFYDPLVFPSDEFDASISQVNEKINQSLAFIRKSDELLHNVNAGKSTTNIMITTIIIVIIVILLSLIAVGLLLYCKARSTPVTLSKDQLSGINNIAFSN

Molecule: prefusion-stabilized RSV F protein (DS-Cav1) (domain or fragment)
- stoichiometry N [1]: 3

Molecule: CS(=O)(=O)CCCn1c(Cn2c(=O)n(CC(F)(F)F)c3ccncc32)cc2cc(Cl)ccc21 [JNJ-53718678]
- binding stoichiometry [2]: one inhibitor per trimer
- Kd ([2]; read-out: equilibrium dissociation constant (KD)): 0.0074 µM
- binding to post-fusion RSV F (post-fusion RSV F): did not bind
- effect of L141W mutation on binding affinity to prefusion F [3]: dramatic reduction
- effect of D489Y mutation on binding affinity to prefusion F [4]: dramatic reduction
- fraction of prefusion F on the surface of the cells after heat shock [5]: concentration-dependent increase
- improvement of activity as compared to BMS-433771 (rgRSV224): > 10 fold
- EC50 (rgRSV224; [22]): 1.6e-09 M
- EC50 (rgRSV224; pEC50 = -Log10(EC50)(M), preliminary SAR, read-out: pEC50 (converted)): 5.01e-10 M
- EC50 (recombinant hMPV): 73 µM
- EC50 (recombinant PIV-3 strain): 26.3 µM
- EC50 (CVB): 3.73 µM
- EC50 (HIV-1 IIIB virus): 13.5 µM
- CC50 at 2 days [6]: 21.6 µM
- EC50 [7]: 24.3 µM
- EC50 (DENV-2): 17.7 µM
- EC50 (CMV-AD169-eGFP virus): 17.4 µM
- EC50 ([8]; rgRSV224 carrying a D489Y resistance mutation in F, read-out: EC50 (mutant RSV)): 4.1 µM
- concentration required for inhibition of the infection rate, L141W mutant RSV (L141W mutant RSV): 100 nM
- concentration required for inhibition of the infection rate, D489Y mutant RSV (D489Y mutant RSV): 10 µM
- decrease of the RSV titer in both BALF and lavaged-lung tissue (Long strain RSV; 40 mg kg−1 once daily from 24 h until Day 3 post-inoculation): 1.5 log10
- decrease of RSV titer in lungs vs vehicle group (Long strain RSV; single oral prophylactic dose 100 mg kg−1, 1 h before infection, on average): 100 fold
- reduction of the viral titer (Long strain RSV; single-dose therapeutic treatment 40 mg kg−1, 24 h after infection): moderate reduction
- viral titer in BALF and lavaged lung (RSV A2): significant decrease
- CCL2 mean concentration in BALF [9]: 118 ± 17 pg/mL
- CCL3 mean concentration in BALF [9]: 77 ± 11 pg/mL
- CCL5 mean concentration in BALF [9]: 111 ± 13 pg/mL
- CXCL1 mean concentration in BALF [9]: 145 ± 23 pg/mL
- CXCL9 mean concentration in BALF [9]: 1,878 ± 135 pg/mL
- CXCL10 mean concentration in BALF [9]: 2,265 ± 332 pg/mL
- IFN mean concentration in BALF [9]: 465 ± 109 pg/mL
- IL-1 mean concentration in BALF [9]: 171 ± 8 pg/mL
- IL-6 mean concentration in BALF [9]: 29 ± 5 pg/mL
- IL-12p40 mean concentration in BALF [9]: 0.7 ± 0.4 pg/mL
- IL-17 mean concentration in BALF [9]: 3.2 ± 0.3 pg/mL
- reduction of influx of neutrophils ([10]; BALB/c mice, single 40 mg kg−1 dose 1 h before infection): ~ 5.5 fold
- CD4+ T cells, mean cell number [10, 23]: 986 ± 113
- CD8+ T cells, mean cell number [10, 23]: 2,757 ± 447
- Monocytes (CD115+ infiltrating into the lung), mean cell number [10, 23]: 33 ± 9
- NK cells, mean cell number [10, 23]: 1,059 ± 130
- Neutrophils, mean cell number [10, 23]: 160 ± 40
- T cells, mean cell number [10, 23]: 2,869 ± 671
- reduction of the viral RNA titer in BALF and lavaged-lung tissue vs vehicle (RSV M37 strain; [24]): > 95%
- reduction of the viral RNA titer in BALF vs vehicle (RSV M37 strain; [24]): ~ 22 fold
- reduction of the viral RNA titer in lavaged-lung tissue vs vehicle (RSV M37 strain; [24]): ~43 fold
- microscopic lung lesions (RSV M37 strain; 25 mg kg−1 initiated 1 day after infection): lacked microscopic lesions
- formation of gross RSV-associated lung lesions (RSV M37 strain; once daily starting 1 day after infection): complete inhibition
- RSV infectious titer in BALF and lavaged-lung tissue (RSV M37 strain; oral once daily 1, 5 or 25 mg kg−1 starting 1 day after infection, Day 6): (almost) complete eradication
- melting temperature (Tm) of soluble prefusion F ectodomain [11]: concentration-dependent increase
- CC50 (HeLa RH cells): > 100 µM
- F ([12]; PO 5 mg kg−1 vs IV 1 mg kg−1): 89%
- CLp as fraction of LBF ([12]; male, Beagle, in vivo, iv, 1 mg/kg): ~ 27 % LBF
- Cmax (in vivo [13]): 254 ng/mL
- Tmax (in vivo [13]): 1 h
- AUC(0-t) (in vivo [13]; AUC0-7 lung): 2020 ng·h/mL
- AUC(0-t) (in vivo [13]; AUC0-7 plasma): 680 ng·h/mL
- Vd (in vivo [14]; in vivo, iv, 1 mg/kg): 2.8 L/kg
- AUC(0-inf) (in vivo [14]; in vivo, po, 5 mg/kg): 9690 ng·h/mL
- Cmax (in vivo [14]; in vivo, po, 5 mg/kg): 1120 ng/mL
- Tmax (in vivo [14]; in vivo, po, 5 mg/kg): 1.7 h
- half-life (in vivo [14]; plasma): 4.1 h
- clearance (in vivo [14]; plasma, iv, 1 mg/kg): 9 mL/min/kg
- CC50 at 3 days (in vitro [15]): > 25 µM
- CC50 (in vitro [16]): > 100 µM
- CC50 at 2 days (in vitro [16]): > 100 µM
- CC50 at 3 days (in vitro [17]): > 25 µM
- CC50 at 5 days (in vitro [18]): > 100 µM
- CC50 at 4 days (in vitro [19]): > 100 µM
- EC50 (recombinant MV): > 100 µM
- EC50 (HRV 16): > 100 µM
- EC50 (HRV 1b): > 100 µM
- activity against RSV strains from both A and B subtypes (RSV A and B strains): highly active
- reduction of viral replication vs non-treated cells [20, 25]: ~ 1.3 log10
- reduction of viral titer vs non-treated cells [20, 25]: ~ 1.3 log10
- EC50 ([20]; human respiratory syncytial virus, read-out: calculated EC50): 0.0012 µM

Molecule: Cc1cn2nc([C@@H]3CCCCN3C(=O)c3cc(Cl)ccc3NS(C)(=O)=O)cc2nc1N1CC[C@H](N)C1 [GS-5806, reference compound]
- EC50 (rgRSV224; [22]): 1e-10 M
- EC50 (rgRSV224; read-out: EC50 parent strain (rgRSV224)): 1e-10 M
- FC (fold change over wild-type strain) mutant strain L141W [21]: 379
- FC (fold change over wild-type strain) mutant strain D489Y ([8]; mutant selected with JNJ-53718678): > 50,000
